Test results: patent US20180014536A1, “AGENT FOR IMPROVING PLANT GROWTH AND METHOD FOR PRODUCING PLANT USING SAME” (FUSO CHEMICAL CO., LTD., priority 2015, published 2018)
Values joined by “and” are separate entries in the source; they are usually repeats but may differ in a detail not shown here. Equal values may be shown once.

Tests used:
cucumber [1] = experiment: Verification experiment 12: salt stress, TTC test; format: in vivo; conditions: cut leaves immersed in 1.0% saline water for 24 hours
racomitrium moss [2] = experiment: Verification experiment 19: ammonia stress, Bryophyta, TTC test; format: in vivo; conditions: samples immersed in 1.0% ammonia solution for 48 hours
cucumber [3] = experiment: Verification experiment 6: dry stress; format: in vivo
Experimental: By use of cucumber, a resistance to dry stress was investigated. 3 ml of Zerumbone was added to cucumber seedlings immediately after germination. The cucumber seedlings were cultivated for 18 days. Meanwhile, another cucumber seedlings were cultivated for 18 days without Zerumbone added thereto. Throughout the cultivation period, a minimum amount of water was given and watering was conducted a minimum number of times so that the soil surface was always kept dry. […] A weight of each of the seedlings was measured. […] Note that, except for the agent, the cultivation conditions used were identical to those of the case where zerumbone was used.

Japanese mustard spinach [4] = experiment: Verification experiment 2: high temperature stress, hydroponics, plenty of sunlight (second time-A)
cucumber [5] = experiment: Verification experiment 11: ultraviolet ray stress, TTC test; format: in vivo; conditions: cut leaves irradiated with ultraviolet ray for 24 hours
leaf lettuce = experiment: Verification experiment 13: hydroponics test on leaf lettuce in vinyl greenhouse in summer; format: in vivo
radish sprouts [6] = experiment: Verification experiment 7: recovering from dry stress; format: in vivo; conditions: among the four samples; sprayed, dried one night, replanted
Text: Next, radish sprouts seedlings were dried so that the radish sprouts seedlings were severely damaged. Subsequently, adequate water was given to the radish sprouts seedlings. Thus, whether or not the radish sprouts seedlings could be recovered from the damage was verified. First, radish sprouts were immersed in water during night so that germination thereof was promoted. After germination, radish sprouts seedlings planted in vermiculite were impregnated in a nutrient fluid of the Ensi formulation. The radish sprouts seedlings were cultured at 25° C. for five days. A light period during the culture was six hours. Then, zerumbone was sprayed to the radish sprouts seedlings. Meanwhile, water was sprayed to samples used as a control. These radish sprouts seedlings were cultured for one more day. Thereafter, the roots thereof were washed so that the vermiculite was removed therefrom. Then, the roots were wiped with a paper towel. The radish sprouts seedlings were then arranged on a tray, and were dried for one night. The radish sprouts seedlings thus dried were planted in culture soil obtained by blending leaf soil and […] soil in a ratio of 4:6 in a pot.

autumn fern [7] = experiment: Verification experiment 16: ammonia stress, Pteridophyta, TTC test; format: in vivo; conditions: cut leaves immersed in 1.0% ammonia solution for 48 hours
cucumber [8] = experiment: Verification experiment 9: organic acid stress, TTC test; format: in vivo; conditions: cut leaves immersed in 0.4% acetic acid solution for two hours
radish sprouts [9] = experiment: Verification experiment 5: alkaline stress (potassium hydroxide); conditions: leaf spray, then immersed in pH 9.0 solution
Text: Next, by use of radish sprouts, a resistance to alkaline stress caused by potassium hydroxide was investigated.
Zerumbone was sprayed onto the leaf surfaces of the cotyledons of radish sprouts seedlings three to four days after germination, and the seedlings were then cultivated for several days. Meanwhile, only water was sprayed onto the leaf surfaces of another radish sprouts seedlings, and the seedlings were then cultivated for several days. The radish sprouts seedlings thus cultivated were immersed in a pH 9.0 acid solution.

cucumber [10] = experiment: Verification experiment 3: high temperature stress, soil culture; format: in vivo; conditions: leaf spray on cotyledons, 10 days cultivation
Experimental: Next, an experiment was conducted to confirm effectiveness of the agent in soil culture of cucumber. First, seeds of cucumber were sown in culture soil thrown into 15 cm-pots (size-5 pots) such that the seeds have spaces therebetween. The culture soil contains, as fertilizer components, 180 mg/L of nitrogen, 120 mg/L of phosphoric acid, and 220 mg/L of potassium. The soil was adjusted at pH 6.0. Watering was performed every early morning. […] A growth difference was observed therebetween.

racomitrium moss [11] = experiment: Verification experiment 18: organic acid stress, Bryophyta, TTC test; format: in vivo; conditions: samples immersed in 0.4% acetic acid solution for three hours
Japanese mustard spinach [12] = experiment: Verification experiment 1: high temperature stress, hydroponics (first time); format: in vivo; conditions: first time
Experimental: In order to confirm that the above substances have an efficacy such as alleviation of the various stresses on a plant or promotion of plant growth, some verification experiments were conducted. In each of the verification experiments, solutions of the above substances were used. A concentration thereof was in a range from 0.01 ppm to 10 ppm, in order to exert a sufficient efficacy on a plant. This concentration was appropriately adjusted for each verification experiment. For comparison, similar verification experiments using sanguinarine were conducted. In such a verification experiment for an identical purpose to the above, a concentration of sanguinarine was set to be identical to those of the above substances. A verification experiment for high temperature stress was conducted by use of Japanese mustard spinach. The experiment was conducted in the following procedures. […] Note that the agent used was zerumbone.

autumn fern [13] = experiment: Verification experiment 15: organic acid stress, Pteridophyta, TTC test; format: in vivo; conditions: cut leaves immersed in 0.4% acetic acid solution for three hours
radish sprouts [14] = experiment: Verification experiment 4: acid stress (nitric acid); conditions: leaf spray, then immersed in pH 2.5 acid solution for one minute
Text: By use of radish sprouts, a resistance to acid stress caused by nitric acid was investigated.
Zerumbone was sprayed onto the leaf surfaces of the cotyledons of radish sprouts seedlings three to four days after germination, and the seedlings were then cultivated for several days. Meanwhile, only water was sprayed onto the leaf surfaces of another radish sprouts seedlings, and the seedlings were then cultivated for several days. The radish sprouts seedlings thus cultivated were immersed in a pH 2.5 acid solution for one minute.

autumn fern [15] = experiment: Verification experiment 14: high temperature stress, Pteridophyta, TTC test; format: in vivo; conditions: cut leaves immersed in tap water of 45° C. for 18 hours
Experimental: As a Pteridophyta, autumn fern was used, which is a representative Pteridophyta often found in, […] bright forest. Verification experiments for various stresses were conducted thereon. The experiments were conducted in the following procedures. […] Meanwhile, the leaf surfaces of the control sample were sprayed only with water. After the spraying onto the leaf surfaces, the autumn fern seedlings were cultivated at 25° C. for one day. The leaves were cut in a suitable size, and were then subjected to various stresses. Then, cell activities of the samples were determined by TTC test. The leaves that were cut in the suitable size were immersed in tap water of 45° C. for 18 hours. On such leaves, TTC test was conducted.

cucumber [16] = experiment: Verification experiment 10: ammonia stress, TTC test; format: in vivo; conditions: cut leaves immersed in 1.0% ammonia solution for three hours
cucumber [17] = experiment: Verification experiment 8: low temperature stress, TTC test; format: in vivo
Japanese mustard spinach [18] = experiment: Verification experiment 2: high temperature and low sunshine stress, hydroponics (second time-B)
racomitrium moss [19] = experiment: Verification experiment 17: high temperature stress, Bryophyta, TTC test; format: in vivo; conditions: samples immersed in tap water of 45° C. for 18 hours
Experimental: As a Bryophyta, racomitrium moss was used, which is a Bryophyta widely used for greening a park, a rooftop, and a garden. Verification experiments for various stresses were conducted thereon. The experiments were conducted in the following procedures. […] Meanwhile, the control sample was sprayed only with water. After the spraying, the racomitrium mosses were cultivated at 25° C. for one day. Then, the samples were subjected to various stresses. Thus, cell activities of the samples were determined by TTC test. […] On such samples, TTC test was conducted.

[20] = leaf lettuce, summer greenhouse hydroponics
[21] = leaf lettuce, summer greenhouse hydroponics, listed as zerumbone

Compound: C/C1=C\CC(C)(C)/C=C/C(=O)/C(C)=C/CC1 [Zerumbone, zerumbone]
- cells alive (TTC test) (cucumber [1]): most of the cells
- TTC test dyeing (cell activity) (racomitrium moss [2]): dyed slightly
- average weight greater than the control samples (cucumber [3]; 18 days dry stress): approximately 13%
- growth compared with control (FIG. 2) (cucumber [3]; after 18-day cultivation under dry stress): grew more greatly than the control
- Average (cucumber [3]; average seedling weight after 18 days dry stress): 3.00 g
- Weight comparison (%) (cucumber [3]; control = 100.0): 113.0%
- weights greater than those of the control samples (Japanese mustard spinach [4]; Table 2 experiment): approximately 17%
- Growth ratio (%) (Japanese mustard spinach [4]; control = 100.0, second time-A): 116.7%
- Weight of 10 samples (Japanese mustard spinach [4]; dry weight of 10 seedlings, nine days, 30-43 °C, plenty of sunlight, second time-A): 2.120 g and 2.176 g and 2.213 g and 2.298 g
- Average (Japanese mustard spinach [4]; second time-A): 2.202 g
- cells having an activity (TTC test) (cucumber [5]): approximately half of the cells
- Growing speed: Harvest timing (leaf lettuce; day on which harvest size reached 150 g to 180 g): 30th day after day after germination
- Disease resistance: Powdery mildew (leaf lettuce; [20]): Not occurred
- Disease resistance: Root rot (leaf lettuce; [20]): Not occurred
- Physiological disorder (quality): Heterophyll (leaf lettuce; [20]): Not occurred
- Physiological disorder (quality): Root spread condition (leaf lettuce; [20]): Very good
- Physiological disorder (quality): Taste (leaf lettuce; [20]): No bitterness
- Physiological disorder (quality): Tip burn (dead fringes of leaf) (leaf lettuce; [20]): Not occurred
- Physiological disorder (quality): Unproductive growth (leaf lettuce; [20]): Not occurred
- occurrence of a disease (overall) (leaf lettuce; [20]): occurrence of a disease was not observed
- physiological disorder (overall) (leaf lettuce; [20]): no physiological disorder occurred
- Physiological disorder (quality): Root spread condition (leaf lettuce; [21]): far better than in the sanguinarine test section
- Physiological disorder (quality): Taste (leaf lettuce; [21]): no bitterness
- samples recovered from the dry state (radish sprouts [6]): three
- TTC test dyeing (cell activity) (autumn fern [7]): dyed slightly
- cells having an activity (TTC test) (cucumber [8]): approximately half of the cells
- resistance to alkaline stress (withering) (radish sprouts [9]): gives a plant resistance to both acid and alkali
- growth of cucumber seedlings (FIG. 1) (cucumber [10]): grown greatly
- TTC test dyeing (cell activity) (racomitrium moss [11]): dyed slightly
- Average (Japanese mustard spinach [12]; average weight of 10 samples): 1.760 g
- weights greater than those of the control samples (Japanese mustard spinach [12]; average weights compared): approximately 15%
- Growth ratio (%) (Japanese mustard spinach [12]; control = 100.0): 115.4%
- Weight of 10 samples (Japanese mustard spinach [12]; dry weight of 10 seedlings, leaf spray, nine days culture, maximum temperature 30-43 °C, plenty of sunlight): 1.729 g and 1.732 g and 1.787 g and 1.792 g
- TTC test dyeing (cell activity) (autumn fern [13]): dyed slightly
- withering of seedlings (radish sprouts [14]): Slight withering was observed in some portions
- TTC test dyeing (cell activity) (autumn fern [15]): dyed slightly
- cells having an activity (TTC test) (cucumber [16]): a part of the cells
- TTC test dyeing (cell activity) (cucumber [17]; cut leaves left two days in dark place at 0° C.): dyed deeply
- TTC test dyeing (cell activity) (cucumber [17]; cut leaves left two days in dark place at −10° C.): dyed slightly
- TTC test dyeing of leaves (cell activity) (cucumber [17]; remaining plants cultivated two days under fluorescent lamp at 4° C.): dyed deeply except for their peripheries
- growth better than the growth of the control samples (Japanese mustard spinach [18]; Table 3 experiment, almost no sunlight): approximately 37%
- Growth ratio (%) (Japanese mustard spinach [18]; control = 100.0, second time-B): 136.5%
- Weight of 10 samples (Japanese mustard spinach [18]; dry weight of 10 seedlings, nine days, 30-43 °C, almost no sunlight, second time-B): 2.137 g and 2.163 g
- Average (Japanese mustard spinach [18]; second time-B): 2.150 g
- TTC test dyeing (cell activity) (racomitrium moss [19]): dyed slightly
